Source: article PMC3038857, “Using Nuclear Receptor Activity to Stratify Hepatocarcinogens” (PLoS ONE, 2011)
Where two headings read alike, the source gives them in different places.

Experiments:
[1] = test system: liver; details: cited from earlier work
[2] = target: T1, PPARA (peroxisome proliferator-activated receptor alpha) (Homo sapiens, UniProt Q07869); assay: ATG_PPARa_TRANS: Factorial reporter gene assay (HepG2); assay type: cell-based; set-up: scale not given here
T1 construct: expressed in transfected cells; host or cells: HepG2
T1 sequence (Q07869 1-468): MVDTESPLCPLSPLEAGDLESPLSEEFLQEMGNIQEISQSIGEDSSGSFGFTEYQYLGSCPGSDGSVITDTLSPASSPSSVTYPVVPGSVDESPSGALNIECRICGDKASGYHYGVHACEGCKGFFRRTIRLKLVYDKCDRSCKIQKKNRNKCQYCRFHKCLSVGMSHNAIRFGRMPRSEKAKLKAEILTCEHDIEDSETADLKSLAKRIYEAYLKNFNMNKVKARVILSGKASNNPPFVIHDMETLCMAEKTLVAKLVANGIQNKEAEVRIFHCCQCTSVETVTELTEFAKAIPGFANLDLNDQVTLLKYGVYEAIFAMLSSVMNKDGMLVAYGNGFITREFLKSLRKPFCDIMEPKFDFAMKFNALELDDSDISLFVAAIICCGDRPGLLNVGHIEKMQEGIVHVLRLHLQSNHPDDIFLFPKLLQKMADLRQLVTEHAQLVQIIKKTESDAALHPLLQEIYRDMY
Protocol: (§1) A multiple reporter transcription unit (MRTU) library consisting of 48 transcription factor binding sites was transfected into the HepG2 human liver hepatoma cell line. In addition to the cis-acting reporter genes (CIS), a modification of the approach was used to generate a trans-system (TRANS) with a mammalian one-hybrid assay consisting of an additional 25 MRTU library reporting the activity of nuclear receptor super-family members. […] These assays were performed by Attagene Inc. (Morrisville NC) under contract to EPA.
(§2) In addition to the cis-acting reporter genes (CIS), a modification of the approach was used to generate a trans-system (TRANS) with a mammalian one-hybrid assay consisting of an additional 25 MRTU library reporting the activity of nuclear receptor super-family members. […] Chemicals were then tested in the CIS and TRANS assays at seven concentrations starting at the MTC and followed by three-fold serial dilutions. These assays were performed by Attagene Inc. (Morrisville NC) under contract to EPA. Detailed description of the methods, data and analysis methods for this dataset will be presented in a separate publication.

[3] = target: T2, PXR (NR1I2) (Homo sapiens, UniProt O75469); assay: ATG_PXRE_CIS: Factorial reporter gene assay (HepG2); assay type: cell-based; set-up: endogenous in cells; host or cells: HepG2
T2 sequence (O75469 1-434): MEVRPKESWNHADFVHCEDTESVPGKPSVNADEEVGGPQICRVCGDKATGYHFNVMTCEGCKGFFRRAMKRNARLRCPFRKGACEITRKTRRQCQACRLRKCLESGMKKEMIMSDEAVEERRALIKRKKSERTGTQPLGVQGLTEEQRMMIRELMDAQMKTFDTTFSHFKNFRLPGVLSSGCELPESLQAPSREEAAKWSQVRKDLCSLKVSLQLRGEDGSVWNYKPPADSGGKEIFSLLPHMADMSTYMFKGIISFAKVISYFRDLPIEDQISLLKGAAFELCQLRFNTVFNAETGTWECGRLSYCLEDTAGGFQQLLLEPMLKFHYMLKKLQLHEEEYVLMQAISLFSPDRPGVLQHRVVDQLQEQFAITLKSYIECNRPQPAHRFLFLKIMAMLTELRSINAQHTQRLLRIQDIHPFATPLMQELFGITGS
Procedure, shortened: (§3)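 Mammalian one-hybrid trans reporters (25 MRTUs) measured ERRg, FXR and PPARg; PXRE used cis reporters from a 48-site MRTU library. Both were run in HepG2. Dosing: seven concentrations, MTC as the highest, three-fold dilution series.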

[4] = target: T2, PXR (NR1I2); assay: NVS_NR_hPXR: Human PXR Fluormone PXR (SXR) green (cell-free HTS); assay type: binding
Procedure, shortened: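 Cell-free biochemical binding assays; chemicals first screened at a single concentration of 25 […] M in duplicate wells. Signals normalised to same-plate solvent controls as percent of neutral control, and AC50 values came from Hill-equation fits of concentration-response curves.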

[5] = test system: Rat Liver; details: chronic study, rat liver; ref ToxRefDB; cited from earlier work
[6] = target: T3, RXRB (retinoid X receptor, beta) (Homo sapiens, UniProt P28702); assay: ATG_RXRb_TRANS: Factorial reporter gene assay (HepG2); assay type: cell-based; details: HepG2 reporter
T3 construct: expressed in transfected cells; host or cells: HepG2
T3 sequence (P28702 1-533): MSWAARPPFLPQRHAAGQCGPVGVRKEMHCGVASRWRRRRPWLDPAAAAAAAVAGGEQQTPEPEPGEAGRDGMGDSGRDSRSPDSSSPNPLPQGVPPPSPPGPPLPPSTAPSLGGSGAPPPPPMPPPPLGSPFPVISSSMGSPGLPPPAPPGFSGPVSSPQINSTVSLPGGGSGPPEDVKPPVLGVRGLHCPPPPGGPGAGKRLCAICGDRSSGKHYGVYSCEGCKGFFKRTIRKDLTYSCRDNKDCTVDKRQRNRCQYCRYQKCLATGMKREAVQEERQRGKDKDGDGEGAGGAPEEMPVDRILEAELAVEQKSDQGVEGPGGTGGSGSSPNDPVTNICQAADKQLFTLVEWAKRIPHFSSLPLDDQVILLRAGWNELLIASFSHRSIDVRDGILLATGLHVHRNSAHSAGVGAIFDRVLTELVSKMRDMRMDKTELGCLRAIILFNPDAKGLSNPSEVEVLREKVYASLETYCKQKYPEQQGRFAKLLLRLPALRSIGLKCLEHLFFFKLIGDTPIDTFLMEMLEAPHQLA
Protocol: as §1, §2

[7] = target: T4, ESR1 (estrogen receptor 1) (Homo sapiens, UniProt P03372); assay: ATG_ERE_CIS: Factorial reporter gene assay (HepG2); assay type: cell-based
T4 construct: expressed in transfected cells; host or cells: HepG2
Protocol: as §1, §2

[8] = test system: Rat Liver; details: chronic study, rat liver; ref ToxRefDB; cited from earlier work; remark: listed apart in the source
[9] = test system: Rat Liver; details: chronic study, rat liver; ref ToxRefDB; cited from earlier work; remark: listed apart in the source
[10] = target: T5, CAR (NR1I3) (Homo sapiens, UniProt Q14994); assay: ATG_CAR_TRANS: Factorial reporter gene assay (HepG2); assay type: cell-based; set-up: endogenous in cells; host or cells: HepG2; details: HepG2 reporter
T5 sequence (Q14994 1-352): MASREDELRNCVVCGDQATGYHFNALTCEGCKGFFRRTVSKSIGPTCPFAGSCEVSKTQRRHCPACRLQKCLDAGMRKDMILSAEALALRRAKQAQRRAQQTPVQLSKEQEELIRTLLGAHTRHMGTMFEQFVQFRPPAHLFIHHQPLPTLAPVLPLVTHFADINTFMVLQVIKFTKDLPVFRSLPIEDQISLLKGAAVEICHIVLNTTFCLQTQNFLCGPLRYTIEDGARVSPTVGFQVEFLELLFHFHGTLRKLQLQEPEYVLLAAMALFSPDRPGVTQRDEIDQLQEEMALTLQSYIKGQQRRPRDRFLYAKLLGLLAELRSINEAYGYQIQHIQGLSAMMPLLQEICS
Protocol: as §1, §2

[11] = target: T6, PPARG (peroxisome proliferator-activated receptor gamma) (Homo sapiens, UniProt P37231); assay: ATG_PPARg_TRANS: Factorial reporter gene assay (HepG2); assay type: cell-based; details: HepG2 reporter
T6 construct: expressed in transfected cells; host or cells: HepG2
T6 sequence (P37231 1-505): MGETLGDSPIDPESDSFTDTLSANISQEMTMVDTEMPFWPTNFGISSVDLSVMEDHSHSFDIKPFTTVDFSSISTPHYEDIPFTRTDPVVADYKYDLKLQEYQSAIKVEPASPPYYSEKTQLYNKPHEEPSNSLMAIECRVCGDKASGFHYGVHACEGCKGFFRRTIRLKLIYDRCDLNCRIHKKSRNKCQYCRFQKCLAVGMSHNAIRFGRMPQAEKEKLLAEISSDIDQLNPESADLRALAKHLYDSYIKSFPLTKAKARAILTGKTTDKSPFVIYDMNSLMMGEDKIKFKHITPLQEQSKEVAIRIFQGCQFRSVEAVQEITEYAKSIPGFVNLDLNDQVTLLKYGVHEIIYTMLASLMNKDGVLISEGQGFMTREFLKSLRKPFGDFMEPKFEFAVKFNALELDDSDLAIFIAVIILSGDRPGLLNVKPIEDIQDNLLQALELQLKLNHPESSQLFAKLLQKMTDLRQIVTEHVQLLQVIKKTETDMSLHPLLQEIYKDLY
Procedure, shortened: as §3

[12] = target: T4, ESR1 (estrogen receptor 1); assay: ATG_ERa_TRANS: Factorial reporter gene assay (HepG2); assay type: cell-based
Procedure, shortened: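 Seven concentrations per chemical, three-fold dilutions down from the MTC, were tested in HepG2 hepatoma cells. Those cells carried a multiple reporter transcription unit library, read either as cis transcription-factor-site reporters or as a trans mammalian one-hybrid panel for nuclear receptors.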

[13] = target: T7, ERa (ESR1) (Homo sapiens, UniProt P03372); assay: NCGC_ERalpha_Agonist: GAL4 BLAM Reporter gene assay: ERa; assay type: cell-based; details: agonist mode
T7 construct: expressed in transfected cells; host or cells: HEK293
Protocol: These assays measure binding constants and enzyme inhibition values for nuclear receptors. The targets include [drawing 67] , [drawing 68] , [drawing 69] , [drawing 70] , [drawing 71] , [drawing 72] , [drawing 73] , [drawing 74] , [drawing 75] and [drawing 76] . Each of the nuclear receptor targets was measured in agonist mode. Assays were run at the NIH Chemical Genomics Center (Rockville, MD).
Cell-based HTS Assays: These assays measuring binding constants and enzyme inhibition values for nuclear receptors. The targets include AR, ER, FXR, LXR, PPARα, PPARδ, PPARγ, RXRα, RXRβ and PXR. Each of the nuclear receptor targets was measured in both agonist and antagonist mode, but the antagonist data is still undergoing analysis due to possible interference between cytotoxicity and assay activity, so antagonist mode data were not used in the present analysis. Assays were run at the NIH Chemical Genomics Center (Rockville, MD) as part of the Tox21 collaboration. […] The R^2 was required to be ≥0.5. Values where only the highest concentration exceeded 50% activity were excluded to eliminate weak or false positives. Detailed description of the methods, data and analysis methods for this dataset will be presented in a separate publication.

[14] = test system: CYP3A4; assay: CLZD_CYP3A4: Change in expression of CYP3A4 (primary human hepatocytes); assay type: cell-based; details: 24 hr
Procedure, shortened: (§4)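 Chemicals are tested in human hepatocyte primary cultures over 0.004-40 µM (5 concentrations) for 6, 24 or 48 hr, and concentration- and time-dependent transcript changes are read by quantitative nuclease protection assay.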

[15] = target: T7, ERa (ESR1); assay: NCGC_ERalpha_Antagonist: GAL4 BLAM Reporter gene assay: ERa; assay type: cell-based; details: antagonist mode
[16] = test system: CYP2B6; assay: CLZD_CYP2B6: Change in expression of CYP2B6 (primary human hepatocytes); assay type: cell-based; details: 24 hr
Procedure, shortened: as §4

[17] = test system: CYP1A2; assay: CLZD_CYP1A2: Change in expression of CYP1A2 (primary human hepatocytes); assay type: cell-based; details: 24 hr
Procedure, shortened: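 Five-point concentration series (0.004-40 µM) applied to primary human hepatocytes; 6/24/48 hr timepoints; transcript quantified by multiplexed nuclease protection.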

[18] = 2-year chronic feeding studies in both rat and mouse, ToxRefDB ref 5

T4 sequence (P03372 whole entry): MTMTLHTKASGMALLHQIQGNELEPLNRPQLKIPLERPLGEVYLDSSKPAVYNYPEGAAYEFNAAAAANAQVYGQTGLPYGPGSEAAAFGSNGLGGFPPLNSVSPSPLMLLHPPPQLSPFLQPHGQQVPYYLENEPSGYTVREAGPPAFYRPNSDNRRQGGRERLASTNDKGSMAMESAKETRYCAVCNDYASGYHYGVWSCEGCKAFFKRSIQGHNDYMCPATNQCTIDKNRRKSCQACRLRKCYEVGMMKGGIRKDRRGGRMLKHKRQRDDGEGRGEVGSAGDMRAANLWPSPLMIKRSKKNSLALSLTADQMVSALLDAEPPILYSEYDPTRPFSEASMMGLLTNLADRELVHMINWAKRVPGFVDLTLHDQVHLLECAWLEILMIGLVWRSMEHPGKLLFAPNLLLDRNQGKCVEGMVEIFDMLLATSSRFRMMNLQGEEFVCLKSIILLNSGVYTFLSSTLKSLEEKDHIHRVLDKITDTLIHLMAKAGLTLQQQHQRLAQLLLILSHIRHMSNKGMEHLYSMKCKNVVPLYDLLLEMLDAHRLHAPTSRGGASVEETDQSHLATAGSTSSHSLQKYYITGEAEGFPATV
T7 sequence (P03372 whole entry, the tested form may be a part): as the sequence (P03372 whole entry) above

Cc1nn(C)c(Oc2ccccc2)c1/C=N/OCc1ccc(C(=O)OC(C)(C)C)cc1 [(Z,E)-Fenpyroximate, tert-butyl 4-[({[(1E)-(1,3-dimethyl-5-phenoxy-1H-pyrazol-4-yl)methylene]amino}oxy)methyl]benzoate]
liver injury (liver histopathology) [1, 18]: negative for any liver injury

Cc1ccc(-c2c(Cl)nc(C#N)n2S(=O)(=O)N(C)C)cc1 [Cyazofamid, 4-chloro-2-cyano-N,N-dimethyl-5-(4-methylphenyl)-1H-imidazole-1-sulfonamide]
liver injury (liver histopathology) ([1]; in vivo): negative for any liver injury

C=C(C)CN(CC)c1c([N+](=O)[O-])cc(C(F)(F)F)cc1[N+](=O)[O-] [Ethalfluralin, N-ethyl-N-(2-methylprop-2-en-1-yl)-2,6-dinitro-4-(trifluoromethyl)aniline]
liver injury (liver histopathology) [1, 18]: negative for any liver injury

CC1(C(=O)Nc2ccc(O)c(Cl)c2Cl)CCCCC1 [Fenhexamid, N-(2,3-dichloro-4-hydroxyphenyl)-1-methylcyclohexanecarboxamide]
liver injury (liver histopathology) ([1]; in vivo): negative for any liver injury

COP(=S)(OC)Oc1ccc(SC)c(C)c1 [Fenthion, O,O-dimethyl O-[3-methyl-4-(methylthio)phenyl] thiophosphate]
liver injury (liver histopathology) [1, 18]: negative for any liver injury

CCOP(=S)(OCC)Oc1nc(Cl)n(C(C)C)n1 [Isazofos, O-(5-chloro-1-isopropyl-1H-1,2,4-triazol-3-yl) O,O-diethyl thiophosphate]
liver injury (liver histopathology) [1, 18]: negative for any liver injury

CCNP(=S)(OC)O/C(C)=C/C(=O)OC(C)C (stereo not drawn) [Propetamphos, isopropyl (2E)-3-{[(ethylamino)(methoxy)phosphorothioyl]oxy}but-2-enoate]
liver injury (liver histopathology) [1, 18]: negative for any liver injury

O=C(O)C(F)(F)C(F)(F)C(F)(F)C(F)(F)C(F)(F)C(F)(F)C(F)(F)F [r241]
ATG_PPARa_TRANS [2]: 4.377
ATG_PXRE_CIS ([3]; HepG2): 4.367

O=[N+]([O-])c1c(Cl)c(Cl)c(Cl)c(Cl)c1Cl [r278]
NVS_NR_hPXR [4]: 4.314
CHR_Rat_Liver_2_PreneoplasticLesion [5]: 6
ATG_RXRb_TRANS [6]: 4.387
ATG_ERE_CIS ([7]; HepG2 reporter): 4.854
CHR_Rat_Liver_3_NeoplasticLesion [8]: 0
CHR_Rat_Liver_1_AnyLesion [9]: 6
ATG_CAR_TRANS [10]: 4.377
ATG_PPARg_TRANS [11]: 4.409
ATG_ERa_TRANS ([12]; HepG2 reporter): 4.284
ATG_PXRE_CIS ([3]; HepG2 reporter): 4.959

COc1ccc(C(c2ccc(OC)cc2)C(Cl)(Cl)Cl)cc1 [row 201]
NCGC_ERalpha_Agonist [13]: 5.406
CLZD_CYP3A4_24 [14]: 4.692
NCGC_ERalpha_Antagonist [15]: 4.409
ATG_ERE_CIS ([7]; HepG2): 5.398
CLZD_CYP2B6_24 [16]: 5.24
ATG_ERa_TRANS ([12]; HepG2): 5.569
CLZD_CYP1A2_24 [17]: 5.201
ATG_PXRE_CIS ([3]; HepG2): 5.036
